{
  "source": "patent US7964613B2",
  "about": "(Asahi Kasei Pharma Corporation, priority 2007, dated 2011)",
  "key": {"intraocular pressure [1]": {"tested_on": "intraocular pressure", "experiment": "Rabbit intraocular pressure reduction enhancing action, Test Example 7-2 (combination use with timolol maleate)", "format": "in vivo, Japanese white rabbit", "settings": "Table 6; 19-1 compound 0.01 weight % aqueous solution 50 μL, Timoptol 50 μL; difference relative to control group at 1, 2, 4 hours; 12 rabbits", "protocol": "As a test compound, the 19-1 compound was dissolved in physiological saline, and the solution was neutralized by addition of sodium hydroxide (pH 7.0 to 8.0) to prepare a 0.01 weight % aqueous solution (19-1 compound aqueous solution). As a drug for combination use, timolol maleate (trade name: Timoptol, Santen Pharmaceutical) was used as an adrenergic receptor β blocker, as the marketed formulation as it was.\nA Japanese white rabbit having a body weight of about 2 kg was placed in a positioner and naturalized for one week before the experiment. An opthalmologic local anesthesant (Benoxil) was administered to both eyes, and then intraocular pressure before instillation was measured by using a tonometer (Classic 30, Solan). […] The intraocular pressure thereafter was measured for each group 1, 2 and 4 hours after the second administration of the test compound, and the difference of the measured values at each measurement time for the each group and the control group was considered an intraocular pressure reduction value of each group. The largest difference of the intraocular pressure values relative to the control group among those of the measured values of the measurement times was considered the maximum intraocular pressure reduction value (max ? IOP) of each drug group."}, "[2]": {"tested_on": "myosin regulatory light chain of mesenteric artery", "settings": "cited from earlier work"}, "intraocular pressure [3]": {"tested_on": "intraocular pressure", "experiment": "Rabbit intraocular pressure reduction enhancing action, Test Example 7-1 (combination use)", "format": "in vivo, Japanese white rabbit", "settings": "Table 5; 19-1 compound 0.01 weight % aqueous solution 50 μL, Rescula 50 μL; left-right eye difference at 2, 4, 6 hours; six rabbits", "protocol": "However, the effect is not limited to the 19-1 compound, and the ophthalmic solution concentration of the 19-1 compound is not limited to those used in this test example. Moreover, as for the test compound used for combination use, similar effect can be obtained also with the compounds of the present invention represented with the example numbers mentioned in Test Example 3.\nAs a test compound, the 19-1 compound was dissolved in physiological saline, and the solution was neutralized by addition of sodium hydroxide (pH 7.0 to 8.0) to prepare a 0.01 weight % aqueous solution (19-1 compound aqueous solution). As the drugs for combination use, isopropyl unoprostone (trade name: Rescula, Santen Pharmaceutical) was used as a prostaglandin-related drug, and brinzolamide hydrochloride (trade name: Azopt, Alcon Japan) was used as […], as the marketed formulations as they were.\nA Japanese white rabbit having a body weight of about 2 kg was placed in a positioner and naturalized for one week before the experiment. An opthalmologic local anesthesant (Benoxil) was administered to both eyes, and then intraocular pressure before instillation was measured by using a tonometer (Classic 30, Solan). A test aqueous solution or the drug for combination use was administered to the left eye, and the right eye was not treated (control eye). The test groups consisted of (1) control group, (2) group instilled only with the 19-1 compound aqueous solution (single drug group 1), (3) group instilled only with the drug for combination use (single drug group 2), and (4) group instilled with the drug for combination use and the 19-1 compound aqueous solution (combination use group), and six rabbits were used for each group. As for the rabbits of these groups, 50 μL of physiological saline was first instilled to the control group, single drug group 1, and single drug group 2, and the drug for combination use was first instilled in the same volume to the combination use group. […] The intraocular pressure thereafter was measured for each group 2, 4 and 6 hours after the second administration of the test compound, and the difference of the measured values for the left and right eyes at each measurement time was considered an intraocular pressure reduction value of each group. The largest difference of the intraocular pressure values for the left and right eyes among those of the measured values of the measurement times was considered the maximum intraocular pressure reduction value (max ? IOP) of each drug group."}},
  "note": "Counter-ions that a name gives are not always drawn.",
  "data": [
    {"smiles": "CC(C)(C)NC[C@H](O)COc1nsnc1N1CCOCC1", "note": "[timolol maleate, reference compound]", "values": [
      {"measurement": "Max IOP (maximum intraocular pressure reduction value)", "setting": "intraocular pressure [1]", "value": 1.9, "unit": "mmHg"}
    ]},
    {"smiles": "CC1CNCCN1S(=O)(=O)c1cccc2cnccc12", "note": "(stereo not drawn) [Example H-7, 1-(5-isoquinolinesulfonyl)-2-methylpiperazine]", "values": [
      {"measurement": "inhibition of phosphorylation of myosin regulatory light chain", "setting": "[2]", "value": "inhibits the phosphorylation of myosin regulatory light chain of mesenteric artery"}
    ]},
    {"smiles": "CCCCCCCC(=O)CC[C@@H]1[C@@H](C/C=C\\CCCC(=O)OC(C)C)[C@@H](O)C[C@H]1O", "note": "[isopropyl unoprostone, reference compound]", "values": [
      {"measurement": "Max IOP (maximum intraocular pressure reduction value)", "setting": "intraocular pressure [3]", "value": 4.4, "unit": "mmHg"}
    ]}
  ]
}
